Marks after values point to notes of the source that are not given here.
Tests used:
[1] = SOD activity, xanthine/xanthine oxidase with cytochrome C as acceptor (Example 2); format: biochemical; conditions: relative to C7 (C7 = 100)
Experimental: Superoxide dismutase (SOD) activity was assayed by following the inhibition of the reduction of an electron acceptor molecule in the presence of the free-radical generating system xanthine/xanthine oxidase (McCord et al. (1973) Superoxide and Superoxide Dismutase in “Oxidases and Related Redox Systems, vol. I, King et al. eds., University Park press, Baltimore, pp. 51-76). The assay mixture consisted of 50 mM sodium phosphate, pH 7.8, 120 μM xanthine, 0.2 units/ml xanthine oxidase, with acceptor molecule and salen manganese compound, as indicated. Assays were conducted at 27±0.2° C. using a water-jacketed cell holder in a Beckman DU7400 spectrophotometer. In most cases, oxidized cytochrome c, at 0.13 mg/ml, was employed as acceptor and its reduction was monitored spectrophotometrically at 550 nm. In some experiments, nitroblue tetrazolium (NBT), at 80 μM, was substituted for cytochrome c as the acceptor. NBT reduction was also monitored at 550 nm. An estimated extinction coefficient for NBT reduction, 20,800 M^−1cm^−1, determined empirically by exhaustive reduction of NBT in the reaction mixture described above, was employed where indicated. […] Conversion of xanthine to urate was calculated using ε290's of […] for urate and 4050 M^−1cm^−1 for xanthine. […] For each compound, at least four different concentrations were tested in duplicate.

[2] = Catalase activity, conversion of H2O2 to oxygen, polarographic oxygen electrode (Example 2); format: biochemical; conditions: relative to C7 (C7 = 100)
Experimental: Catalase activity was assayed by monitoring the conversion of H2O2 to oxygen using a Clark-type polarographic oxygen electrode. The apparatus consisted of a Mini Clark Style electrode, a 600 μl Oxygen Uptake Chamber, and a Chemical Microsensor system, all obtained from Diamond General Corporation (Ann Arbor, Mich.). The electrode was calibrated by immersion in nitrogen- or air-equilibrated buffers using a Dual Chamber Calibration Cell (Diamond General,. Corp.). Catalase reaction mixtures consisted of 50 mM sodium phosphate, pH 8.1, 0.9% sodium chloride, and salen manganese complex and H2O2 at the indicated concentrations. The temperature of the water-jacketed reaction chamber, as well as the calibration buffers, was maintained at 25±0.1° C. Data were collected at 1 sec intervals and stored-on a MacIntosh II computer using data acquisition hardware and software by Strawberry Tree, Inc. (Sunnyvale, Calif.). Dissolved oxygen concentrations were calculated as described previously (Del Rio et al. (1977) Anal. Biochem. 80: 409) based on a value of 2.5×10^−4 M oxygen for air-saturated buffer at 25° C. Linearity of the dissolved oxygen measurements within the experimental range was continued by determining the amount of oxygen generated from known quantities of H2O2 during exhaustive treatment with bovine liver catalase. Stock solutions of H2O2 were prepared by diluting a commercial 30% H2O2 solution in water and the H2O2 concentrations in these stocks were determined by absorbance at 240 nm, using a molar extinction coefficient of 44 (Stadtman, E R. et al. (1990) Proc. Natl. Acad. Sci. USA 87: 384). […] In the absence of salen manganese complex, H2O2 alone typically produced an early, relatively slow increase in signal. The slope of this increased signal was not proportional to H2O2 concentration (for example in one experiment, 1 and 10 Mm H2O2 yielded apparent rates of 12 and 14 μM oxygen per min, respectively) and may be due to an electrode artifact. […] Where presented, initial rates were calculated by determining the slope of the linear portion of time dependent plots of oxygen generation, usually comprising the first five seconds of the reaction. Unless otherwise indicated, these were corrected by subtracting the rate obtained with H2O2 alone. Where presented, endpoint oxygen generated was calculated from time-dependent plots, such as those shown in FIG. 14, as the difference between the baseline oxygen concentration immediately prior to substrate addition and the maximal oxygen concentration achieved during the course of the reaction. All reactions subjected to these calculations were run for a sufficient time to ensure that oxygen generation had ceased.
(§1) Catalase and peroxidase activities were assayed as described in Example 2. Catalase assays contained 10 μM salen-manganese complex and 10 mM hydrogen peroxide. Peroxidase assays contained 10 μM salen-manganese complex and 0.2 mM hydrogen peroxide. Glucose-glucose oxidase toxicity assays were performed using human dermal fibroblasts as described in Example 2.

[3] = Peroxidase activity, H2O2-dependent oxidation of ABTS (Example 2); format: biochemical; conditions: relative to C7 (C7 = 100)
Experimental: Peroxidase activity was assayed by monitoring the hydrogen peroxide-dependent oxidation of 2,2′-azino-bis(3-ethylbenzthiazoline-6) sulfonic acid (ABTS) spectrophotometrically. Standard assay mixtures consisted of 50 mM sodium phosphate, pH 8.1, 0.9% sodium chloride, 0.5 mM ABTS, and H2O2 and salen manganese complex as indicated. Where indicated, 50 mM sodium phosphate buffers of pH 6.0 or pH 7.1 were substituted. Assays were conducted at 27±0.2° C. ABTS oxidation was monitored at 740 or 500 nm to eliminate interference by the salen manganese complexes, many of which absorb in the vicinity of the λmax of oxidized ABTS, and to avoid absorbance values that exceeded the linear range of the spectrophotometer. The amount of oxidized ABTS was estimated using an Δε740 of 20,300 M^−1cm^−1 or an Δε500 of 3400 M^−1cm^−1 calculated based upon the published molar extinction coefficient oat 405 nm (36,800).
as §1

[4] = system: isolated iron-overloaded rat hearts; assay: Isolated iron-overloaded rat hearts submitted to ischemia and reperfusion (function and electron microscopy)
Experimental: Rats received an intramuscular injection of 0.25 ml of an iron-dextran solution (100 g iron hydroxide, 99 g dextran, water up to 1 l) every third day during a 5-week period to achieve a significant iron overload in cardiac tissue. At the end of this treatment, rats were anesthetized with sodium pentobarbital (40 mg/kg) and heparin (1,000 IU/kg) was administered via a femoral vein. Hearts were then removed and rapidly perfused through the aorta according to the technique described by Langendorff [Langendorff, O., Pflügers Arch. 61: 291, 1895] at a constant flow rate of 11 ml/minute. The perfusion fluid was a modified Krebs-Henseleit buffer containing (in mmol/l): NaCl 118, KCl 5.9, NaHCO3 25, MgCl2 1.2, NaH2PO4 0.6, CaCl2 2.4, Glucose […]. pH was maintained at 7.4±0.05 when the perfusion medium was saturated with O2—CO2 (95%-5%) at 37° C. The perfusion apparatus was fully thermostated such that the temperature of the perfusion medium was 37.0±0.5° C. when it reached the aorta. An ultra-thin balloon was inserted in the left ventricle immediately after the initiation of aortic perfusion and was inflated so as to obtain an end-diastolic pressure of 5 mm Hg. A 15 minute stabilization period was initiated immediately following balloon placement. At the end of this period, systolic and diastolic ventricular pressures and heart beat rate (HR) were recorded through a pressure transducer linked to the ventricular balloon. Left Ventricular Developed Pressure (LVDP) was calculated by the difference between systolic and diastolic pressure and the product HR×LVDP was taken as an index of oxygen consumption. Hearts were then subjected to a 15 minute total global normothermic ischemia, followed by 15 minutes of reperfusion with the perfusion medium used initially. During this 15 minute reperfusion, heart rate, and diastolic and systolic pressures were monitored. Early ventricular fibrillations were analyzed 1 min. after the start of the reperfusion.
Three experimental groups were studied.
After the 15 minute reperfusion, 3 hearts in each group were prepared for electron microscopy by perfusion with 2.5% glutaraldehyde. Ultra-thin slices (500-600 Å thickness) were examined.
Mitochondria were classified into Type A (normal), Type B (swollen, unbroken), and Type C (ruptured membranes). Sarcomeres were classified into Type A (normal) and Type B (contacted and/or necrosis). The results are expressed as percentages.

[5] = 1 minute after reperfusion, DMTU 10 mM, C7 50 μM
[6] = 15 minutes after reperfusion, DMTU 10 mM, C7 50 μM
[7] = Before ischemia, DMTU 10 mM, C7 50 μM
[8] = electron microscopy after 15 minute reperfusion

| SMILES | Catalase endpt. [2] | Catalase rate [2] | Peroxidase [3] | other results |
| --- | --- | --- | --- | --- |
| COc1cc(OC)c2c(c1)[O][Mn]([Cl])[O]c1cc(OC)cc(OC)c1C=NCCN=C2 [Compound C39] |  |  |  | SOD [1]: 27 |
| [Cl][Mn]1[O]c2ccccc2C=Nc2cccnc2N=Cc2ccccc2[O]1 [Compound C44] | 493 | 272 | 48 |  |
| COc1cccc2c1[O][Mn]([Cl])[O]c1c(cccc1OC)C=Nc1ncccc1N=C2 [Compound C46] | 830 | 465 | 20 |  |
| CC(=O)[O][Mn]1[O]c2ccccc2C=Nc2ccccc2N=Cc2ccccc2[O]1 [Compound C47] | 398 | 343 | 101 |  |
| COc1cccc2c1[O][Mn]([O]C(C)=O)[O]c1c(cccc1OC)C=NC1CCCCC1N=C2 (centres unmarked) [Compound C50] | 287 | 174 | 170 |  |
| CC(=O)[O][Mn]1[O]c2ccccc2C=NCC(C)(C)CN=Cc2ccccc2[O]1 [Compound C52] | 33 | 73 | 0 |  |
| [F][Mn]1[O]c2ccccc2C=NCCN=Cc2ccccc2[O]1 [Compound C54] |  |  | 116 | SOD [1]: 75 |
| [Br][Mn]1[O]c2ccccc2C=NCCN=Cc2ccccc2[O]1 [Compound C55] |  |  | 101 | SOD [1]: 178 |
| [Cl][Fe]1[O]c2ccccc2C=NCCN=Cc2ccccc2[O]1 [Compound C57] |  |  |  | SOD [1]: 33 |
| C1=NCCN=Cc2ccccc2[O][Ni][O]c2ccccc21 [Compound C59] |  |  | 0 |  |
| COc1cc(Br)c2c(c1)C=NCCN=Cc1cc(OC)cc(Br)c1[O][Mn]([O]C(C)=O)[O]2 [Compound C69] |  |  | 167 |  |
| CC(=O)[O][Mn]1[O]c2c(O)cccc2C=NCCN=Cc2cccc(O)c2[O]1 [Compound C71] |  |  |  | SOD [1]: 75 |
| Oc1ccc2c(c1)[O][Mn]([Cl])[O]c1cc(O)ccc1C=NCCN=C2 [Compound C72] |  |  |  | SOD [1]: 58 |
| CC(=O)[O][Mn]1[O]c2cc(O)ccc2C=NCCN=Cc2ccc(O)cc2[O]1 [Compound C73] |  |  |  | SOD [1]: 61 |
| CC(=O)[O][Mn]1[O]c2ccc(O)cc2C=NCCN=Cc2cc(O)ccc2[O]1 [Compound C74] |  |  |  | SOD [1]: 65 |
| CC(=O)[O][Mn]1[O]c2c(F)cccc2C=Nc2cccnc2N=Cc2cccc(F)c2[O]1 [Compound C75] |  |  | 0 |  |
| COc1cc(Br)c2c(c1)C=Nc1ccccc1N=Cc1cc(OC)cc(Br)c1[O][Mn]([O]C(C)=O)[O]2 [Compound C76] | 159 | 427 | 23 |  |
| CC(=O)[O][Mn]1[O]c2ccc(Cl)cc2C=Nc2cccnc2N=Cc2cc(Cl)ccc2[O]1 [Compound C77] |  |  | 0 |  |
| CC(=O)[O][Mn]1[O]c2ccc3ccccc3c2C=Nc2ccccc2N=Cc2c(ccc3ccccc23)[O]1 [Compound C79] | 22 | 42 | 0 |  |
| COc1cccc2c1[O][Mn]([O]C(C)=O)[O]c1c(cccc1OC)C=NCCCN=C2 [Compound C80] | 24 | 34 | 0 |  |
| COc1cccc2c1[O][Mn]([Cl])[O]c1c(cccc1OC)C=Nc1ccccc1N=C2 [Compound C81] | 870 | 493 | 83 |  |
| CC(=O)[O][Mn]1[O]c2c3cccc2OCCOCCOCCOc2cccc(c2[O]1)C=Nc1ccccc1N=C3 [Compound C82] | 756 | 345 | 59 |  |
| CC(=O)[O][Mn]1[O]c2ccccc2CNCCNCc2ccccc2[O]1 [Compound C83] | 52 | 42 | 74 |  |
| [Cl][Mn]1[O]c2ccccc2CNCCNCc2ccccc2[O]1 [Compound C84] | 51 | 31 | 77 |  |
| COc1ccc2c(c1)C(C)=NCCN=C(C)c1cc(OC)ccc1[O][Mn]([O]C(C)=O)[O]2 [Compound C87] |  |  | 20 |  |
| COc1ccc2c(c1)[O][Mn]([O]C(C)=O)[O]c1cc(OC)ccc1C(C)=NCCN=C2C [Compound C88] |  |  | 0 |  |
| COc1ccc2c(c1)[O][Mn]([O]C(C)=O)[O]c1cc(OC)ccc1C(c1ccccc1)=NCCN=C2c1ccccc1 [Compound C89] |  |  | 0 |  |
| CNC(=S)NC [DMTU, dimethylthiourea] |  |  |  | DP [4, 5]: 37.2 ± 10.0 mm Hg; HR [4, 5]: 91 ± 10 beats/min; HR × LVDP [4, 5]: 3.5 ± 1.2 ×10.3; SP [4, 5]: 62 ± 9 mm Hg; VF, number of hearts exhibiting episodes of ventricular fibrillation [4, 5]: 3/8; DP [4, 6]: 27.8 ± 9.4 mm Hg; HR [4, 6]: 226 ± 18 beats/min; HR × LVDP [4, 6]: 9.4 ± 2.0 ×10.3; SP [4, 6]: 58 ± 6 mm Hg; DP [4, 7]: 4.7 ± 0.3 mm Hg; HR [4, 7]: 280 ± 10 beats/min; HR × LVDP [4, 7]: 24.1 ± 0.6 ×10.3; SP [4, 7]: 97 ± 4 mm Hg; Mitochondria Type A (normal) [4, 8]: 14.3* %; Mitochondria Type B (swollen, unbroken) [4, 8]: 19.5%; Mitochondria Type C (ruptured membranes) [4, 8]: 66.2%; Sarcomeres Type A (normal) [4, 8]: 13.7+ %; Sarcomeres Type B (contacted and/or necrosis) [4, 8]: 86.3+ % |

— patent publication US7582786B2, “Synthetic catalytic free radical scavengers useful as antioxidants for prevention and therapy of disease” (Eukarion Inc., priority 1996, dated 2009)
